Data from the supplement of paper PMC12463676, “Small-molecule dissolution of stress granules by redox modulation benefits ALS models” (Nature Chemical Biology, 2025).

Columns and labels:
lipoamide = compound: NC(=O)CCCCC1CCSS1 [lipoamide]; assay: thermal stability z-score vs DMSO; higher = more thermally stabilized by treatment; conditions: HeLa, lipoamide concentration 100 µM
Protocol: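 Cellular thermal proteome profiling in HeLa cells. Cells were treated with 100 µM lipoamide for 1 h, with or without 1 mM arsenate for a further 1 h, then heated to ten temperatures (37-66.3 °C), and soluble protein was quantified by TMT mass spectrometry relative to 0.1% DMSO controls. The thermal stability score (sum of log2 fold changes minus the abundance score) was transformed to a z-score; mean of n = 3 experiments.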

potassium arsenate = compound: O=[As]([O-])(O)O.[K+] [potassium arsenate]; assay: as above; conditions: HeLa; arsenate concentration 1 mM
Protocol: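 Cellular thermal proteome profiling in HeLa cells treated with 1 mM arsenate for 1 h (DMSO pretreatment), heated to ten temperatures (37-66.3 °C). Soluble protein was quantified by TMT mass spectrometry relative to DMSO controls; the thermal stability score was transformed to a z-score; mean of n = 3 experiments.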

[1] = arsenate co-treatment: 1 mM arsenate 1 h
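Also: each temperature applied for 3 min, abundance score taken as mean log2 fold change at the two lowest temperatures, z-score obtained by mean subtraction and division by SD.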

UniProt P63151, sequence (P63151 whole entry): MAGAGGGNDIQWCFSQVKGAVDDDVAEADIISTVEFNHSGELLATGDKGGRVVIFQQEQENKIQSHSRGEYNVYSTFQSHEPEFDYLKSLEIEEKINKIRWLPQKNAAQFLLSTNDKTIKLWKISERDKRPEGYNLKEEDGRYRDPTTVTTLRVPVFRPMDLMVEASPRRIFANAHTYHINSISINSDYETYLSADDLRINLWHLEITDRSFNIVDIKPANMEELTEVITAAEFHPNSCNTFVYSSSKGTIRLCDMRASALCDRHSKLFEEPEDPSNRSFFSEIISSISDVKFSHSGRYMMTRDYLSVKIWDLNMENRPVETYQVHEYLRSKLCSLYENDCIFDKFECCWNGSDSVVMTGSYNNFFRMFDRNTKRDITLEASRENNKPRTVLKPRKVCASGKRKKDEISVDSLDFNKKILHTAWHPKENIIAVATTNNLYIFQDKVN
UniProt Q07157, sequence (Q07157 whole entry): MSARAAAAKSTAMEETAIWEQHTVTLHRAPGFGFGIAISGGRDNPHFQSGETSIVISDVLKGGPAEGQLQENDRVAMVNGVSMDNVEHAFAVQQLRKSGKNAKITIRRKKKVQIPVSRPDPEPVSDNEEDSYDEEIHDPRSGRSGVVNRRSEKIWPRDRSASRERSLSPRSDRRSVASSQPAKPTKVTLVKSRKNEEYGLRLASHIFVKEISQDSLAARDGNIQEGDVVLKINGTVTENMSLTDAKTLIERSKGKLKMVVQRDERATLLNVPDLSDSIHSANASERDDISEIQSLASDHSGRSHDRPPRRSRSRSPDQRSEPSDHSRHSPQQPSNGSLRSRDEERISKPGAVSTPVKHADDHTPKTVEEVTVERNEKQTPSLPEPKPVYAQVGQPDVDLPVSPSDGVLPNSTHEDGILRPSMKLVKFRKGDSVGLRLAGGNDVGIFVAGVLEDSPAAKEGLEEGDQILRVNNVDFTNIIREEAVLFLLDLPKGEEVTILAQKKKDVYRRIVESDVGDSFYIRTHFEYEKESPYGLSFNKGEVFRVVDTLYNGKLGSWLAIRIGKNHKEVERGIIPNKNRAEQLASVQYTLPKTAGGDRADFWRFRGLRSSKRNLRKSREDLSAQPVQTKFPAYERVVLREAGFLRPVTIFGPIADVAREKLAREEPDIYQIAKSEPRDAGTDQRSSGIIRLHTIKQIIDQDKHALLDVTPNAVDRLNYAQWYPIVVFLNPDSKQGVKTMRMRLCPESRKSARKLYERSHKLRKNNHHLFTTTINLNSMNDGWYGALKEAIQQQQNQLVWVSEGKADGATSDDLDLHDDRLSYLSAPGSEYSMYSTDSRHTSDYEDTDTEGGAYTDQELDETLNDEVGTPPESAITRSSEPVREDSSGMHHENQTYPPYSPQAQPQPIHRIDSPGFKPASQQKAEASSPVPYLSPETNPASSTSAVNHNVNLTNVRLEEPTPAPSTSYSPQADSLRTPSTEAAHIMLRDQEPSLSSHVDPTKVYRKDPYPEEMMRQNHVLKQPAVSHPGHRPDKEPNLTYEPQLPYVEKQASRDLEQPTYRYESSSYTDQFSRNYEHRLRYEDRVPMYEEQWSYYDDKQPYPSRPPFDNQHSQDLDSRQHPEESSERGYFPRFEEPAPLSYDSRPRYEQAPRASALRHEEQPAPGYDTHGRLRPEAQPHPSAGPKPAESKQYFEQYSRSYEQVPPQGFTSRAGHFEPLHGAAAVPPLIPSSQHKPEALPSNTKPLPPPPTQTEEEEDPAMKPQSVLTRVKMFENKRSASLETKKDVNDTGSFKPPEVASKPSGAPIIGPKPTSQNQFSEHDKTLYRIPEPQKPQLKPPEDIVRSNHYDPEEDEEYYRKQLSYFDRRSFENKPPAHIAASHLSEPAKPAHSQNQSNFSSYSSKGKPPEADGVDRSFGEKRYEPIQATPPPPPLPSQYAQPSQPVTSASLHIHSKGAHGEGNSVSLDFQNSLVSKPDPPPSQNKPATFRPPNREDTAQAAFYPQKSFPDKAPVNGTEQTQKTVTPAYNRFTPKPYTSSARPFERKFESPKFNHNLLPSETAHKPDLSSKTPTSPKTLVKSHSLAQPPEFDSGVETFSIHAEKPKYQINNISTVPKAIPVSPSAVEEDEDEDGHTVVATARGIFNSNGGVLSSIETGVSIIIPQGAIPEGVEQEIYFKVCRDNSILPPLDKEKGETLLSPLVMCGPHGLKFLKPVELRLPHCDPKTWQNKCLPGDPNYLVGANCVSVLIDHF
UniProt P46736, sequence (P46736 whole entry): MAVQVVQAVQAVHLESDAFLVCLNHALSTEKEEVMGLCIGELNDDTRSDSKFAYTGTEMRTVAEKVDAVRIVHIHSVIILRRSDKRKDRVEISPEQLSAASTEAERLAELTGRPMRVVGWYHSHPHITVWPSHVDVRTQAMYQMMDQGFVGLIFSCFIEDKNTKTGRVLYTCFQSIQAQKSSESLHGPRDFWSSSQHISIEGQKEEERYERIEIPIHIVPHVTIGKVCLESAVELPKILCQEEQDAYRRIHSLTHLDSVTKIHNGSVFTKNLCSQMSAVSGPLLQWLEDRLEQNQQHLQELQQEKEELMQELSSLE
UniProt O00762, sequence (O00762 whole entry): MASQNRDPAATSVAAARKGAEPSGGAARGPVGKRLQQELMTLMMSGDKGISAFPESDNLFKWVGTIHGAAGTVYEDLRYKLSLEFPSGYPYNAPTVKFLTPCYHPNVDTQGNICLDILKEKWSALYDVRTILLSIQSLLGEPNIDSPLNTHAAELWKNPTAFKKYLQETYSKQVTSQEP
UniProt Q7L1V2, sequence (Q7L1V2 whole entry): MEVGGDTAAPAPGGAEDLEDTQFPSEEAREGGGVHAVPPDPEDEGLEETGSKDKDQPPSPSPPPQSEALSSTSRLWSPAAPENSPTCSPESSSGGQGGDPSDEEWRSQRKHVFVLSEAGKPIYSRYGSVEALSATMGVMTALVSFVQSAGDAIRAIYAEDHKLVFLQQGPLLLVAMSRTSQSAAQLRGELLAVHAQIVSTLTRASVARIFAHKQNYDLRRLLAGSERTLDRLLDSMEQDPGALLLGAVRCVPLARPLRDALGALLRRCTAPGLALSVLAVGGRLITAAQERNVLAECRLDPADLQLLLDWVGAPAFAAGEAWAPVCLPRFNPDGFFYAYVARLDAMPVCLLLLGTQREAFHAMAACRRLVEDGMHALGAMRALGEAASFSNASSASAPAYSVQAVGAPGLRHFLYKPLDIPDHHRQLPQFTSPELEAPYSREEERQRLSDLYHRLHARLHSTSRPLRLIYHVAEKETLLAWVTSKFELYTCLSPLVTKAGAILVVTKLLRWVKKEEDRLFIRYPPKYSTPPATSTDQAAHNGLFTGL
UniProt Q05932, sequence (Q05932 whole entry): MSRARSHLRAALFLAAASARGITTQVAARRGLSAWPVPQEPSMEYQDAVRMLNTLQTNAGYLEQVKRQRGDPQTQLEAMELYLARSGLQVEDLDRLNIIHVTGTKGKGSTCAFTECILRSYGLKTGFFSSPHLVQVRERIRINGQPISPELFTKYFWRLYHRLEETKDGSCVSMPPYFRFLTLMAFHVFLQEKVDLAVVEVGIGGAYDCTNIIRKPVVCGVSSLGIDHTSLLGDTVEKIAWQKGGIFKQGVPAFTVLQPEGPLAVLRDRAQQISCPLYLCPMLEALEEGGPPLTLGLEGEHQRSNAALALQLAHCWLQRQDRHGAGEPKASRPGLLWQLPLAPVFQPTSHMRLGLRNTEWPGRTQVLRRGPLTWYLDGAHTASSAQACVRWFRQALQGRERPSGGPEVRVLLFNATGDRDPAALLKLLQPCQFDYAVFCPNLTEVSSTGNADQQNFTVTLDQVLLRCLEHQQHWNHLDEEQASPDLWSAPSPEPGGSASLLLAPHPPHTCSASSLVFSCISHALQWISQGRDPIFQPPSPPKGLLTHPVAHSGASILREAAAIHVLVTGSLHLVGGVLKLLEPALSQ
UniProt P58557, sequence (P58557 whole entry): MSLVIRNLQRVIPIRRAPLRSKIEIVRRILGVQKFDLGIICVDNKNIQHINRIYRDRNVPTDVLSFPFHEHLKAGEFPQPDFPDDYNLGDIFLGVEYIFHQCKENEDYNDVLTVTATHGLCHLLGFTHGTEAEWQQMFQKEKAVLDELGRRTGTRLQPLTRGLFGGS
UniProt O76071, sequence (O76071 whole entry): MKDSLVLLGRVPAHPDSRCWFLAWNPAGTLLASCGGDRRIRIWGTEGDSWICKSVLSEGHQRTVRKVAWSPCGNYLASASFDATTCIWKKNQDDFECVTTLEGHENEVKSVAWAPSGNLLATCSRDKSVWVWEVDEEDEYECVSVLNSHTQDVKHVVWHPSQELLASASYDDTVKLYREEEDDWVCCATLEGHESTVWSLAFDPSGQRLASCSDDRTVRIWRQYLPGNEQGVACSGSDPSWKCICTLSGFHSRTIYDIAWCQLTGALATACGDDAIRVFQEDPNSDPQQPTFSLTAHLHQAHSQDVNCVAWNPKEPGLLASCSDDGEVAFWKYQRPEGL
UniProt Q9Y2S7, sequence (Q9Y2S7 whole entry): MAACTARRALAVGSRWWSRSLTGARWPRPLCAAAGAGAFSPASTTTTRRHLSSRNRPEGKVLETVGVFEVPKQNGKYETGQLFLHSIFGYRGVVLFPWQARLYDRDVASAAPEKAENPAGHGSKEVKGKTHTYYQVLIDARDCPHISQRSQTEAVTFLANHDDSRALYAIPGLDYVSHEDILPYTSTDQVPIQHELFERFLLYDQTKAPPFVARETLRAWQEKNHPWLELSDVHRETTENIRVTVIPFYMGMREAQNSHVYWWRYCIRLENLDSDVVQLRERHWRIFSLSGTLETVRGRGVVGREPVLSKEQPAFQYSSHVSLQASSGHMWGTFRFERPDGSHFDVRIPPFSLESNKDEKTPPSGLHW
UniProt P24385, sequence (P24385 whole entry): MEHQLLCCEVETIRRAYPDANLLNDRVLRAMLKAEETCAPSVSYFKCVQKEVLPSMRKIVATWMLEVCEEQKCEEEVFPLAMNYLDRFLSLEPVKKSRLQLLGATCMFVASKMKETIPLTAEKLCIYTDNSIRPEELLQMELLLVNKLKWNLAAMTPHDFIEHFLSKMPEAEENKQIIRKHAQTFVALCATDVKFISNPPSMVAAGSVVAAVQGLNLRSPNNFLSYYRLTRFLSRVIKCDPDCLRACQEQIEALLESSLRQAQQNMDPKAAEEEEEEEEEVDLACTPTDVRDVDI

Target	thermal stability z-score (lipoamide; [1])	thermal stability z-score (lipoamide; arsenate co-treatment: none)	thermal stability z-score (potassium arsenate)
PPP2R2A (UniProt P63151)	0.294	0.531	-0.49
DRAM2 (UniProt Q6UX65)	0.00378	-0.247	1.26
RNF139 (UniProt Q8WU17)	-1.16	-0.12	0.947
KATNB1 (UniProt Q9BVA0)	0.145	0.401	-0.452
HSPA4L (UniProt O95757)	0.0785	-0.0888	0.388
TMX2 (UniProt Q9Y320)	-1.05	-2.85	-1.96
MTMR14 (UniProt Q8NCE2)	-1.39	-0.656	-0.829
MORF4L2 (UniProt Q15014)	-0.451	-0.148	-0.58
FADS1 (UniProt O60427)	0.469	0.181	0.226
TMEM87B (UniProt Q96K49)	-0.402	0.56	-0.0195
WDR43 (UniProt Q15061)	-1.62	-1.02	-0.817
RPL21 (UniProt P46778)	0.61	0.308	-1.03
DARS (UniProt P14868)	0.186	-0.0144	-0.593
DAZAP1 (UniProt Q96EP5)	1.15	1.07	0.243
CHM (UniProt P24386)	0.191	0.152	-0.22
EML4 (UniProt Q9HC35)	-0.51	-0.693	1.33
YBEY (UniProt P58557)	-0.077	0.169	0.131
TIMM23 (UniProt O14925)	0.248	-0.124	0.0795
BPTF (UniProt Q12830)	0.137	0.144	-0.181
CIAO1 (UniProt O76071)	0.164	0.0342	-1.32
MGLL (UniProt Q99685)	0.592	0.117	-0.132
RABEPK (UniProt Q7Z6M1)	0.68	0.305	-0.0506
ANXA1 (UniProt P04083)	0.957	0.83	-0.37
ANO10 (UniProt Q9NW15)	-0.0281	-0.122	-0.262

Target	thermal stability z-score (lipoamide; [1])	thermal stability z-score (lipoamide; arsenate co-treatment: none)	thermal stability z-score (potassium arsenate)
XXYLT1 (UniProt Q8NBI6)	-0.751	-2.13	0.948
BRCC3 (UniProt P46736)	-0.0792	0.172	0.468
SNRPD3 (UniProt P62318)	0.93	0.207	0.399
PARL (UniProt Q9H300)	-0.134	-0.733	0.57
CCND1 (UniProt P24385)	-0.0213	-0.202	0.0378
NSL1 (UniProt Q96IY1)	0.254	-0.0663	-0.0597
XAB2 (UniProt Q9HCS7)	-0.104	-0.113	0.256
POLDIP2 (UniProt Q9Y2S7)	-0.119	-0.241	0.18
MRPS15 (UniProt P82914)	0.673	0.571	0.555
PLEC (UniProt Q15149)	2.76	2.01	-3.9
STAT5A (UniProt P42229)	-0.0259	0.314	0.0163
FAM50A (UniProt Q14320)	-0.0555	0.352	0.455
KIAA1429 (UniProt Q69YN4)	-0.266	-0.035	-0.0736
FEM1B (UniProt Q9UK73)	0.128	0.146	-1.27
NDUFAF7 (UniProt Q7L592)	-0.486	-0.171	0.288
CHP1 (UniProt Q99653)	0.377	0.436	1.28
CDS2 (UniProt O95674)	-0.807	-0.975	-0.43
JMJD1C (UniProt Q15652)	0.559	-0.396	-0.398
MGST1 (UniProt P10620)	0.304	-0.147	0.892
G3V3G9 (UniProt P40855)	-0.319	-0.13	-0.695
NKIRAS2 (UniProt Q9NYR9)	0.0549	-0.0133	0.137
CLTCL1 (UniProt P53675)	0.147	0.15	0.858
FPGS (UniProt Q05932)	0.0221	-0.181	0.864
LONP1 (UniProt P36776)	-0.482	-0.277	-0.763

Target	thermal stability z-score (lipoamide; [1])	thermal stability z-score (lipoamide; arsenate co-treatment: none)	thermal stability z-score (potassium arsenate)
CCDC88A (UniProt Q3V6T2)	1.49	0.586	1.3
TJP1 (UniProt Q07157)	0.078	-0.0866	0.371
ATP1A1 (UniProt P05023)	0.0243	0.186	-0.742
SNX6 (UniProt Q9UNH7)	0.175	0.276	0.277
TYRO3 (UniProt Q06418)	0.189	-0.0901	-0.136
SLC2A1 (UniProt P11166)	0.651	0.659	0.124
RAVER1 (UniProt Q8IY67)	-0.141	-0.0728	-0.162
MAGED2 (UniProt Q9UNF1)	-0.0801	0.24	0.741
LGMN (UniProt Q99538)	-0.232	-0.461	-0.193
PHGDH (UniProt O43175)	1.08	0.761	-2.42
RMND5A (UniProt Q9H871)	0.216	0.0656	0.156
NPRL3 (UniProt Q12980)	-0.0487	0.0269	-0.104
ERAL1 (UniProt O75616)	-0.329	-0.113	-0.45
UBE2C (UniProt O00762)	0.263	-0.139	0.4
TUBGCP5 (UniProt Q96RT8)	-0.335	-0.139	-0.119
AP1M1 (UniProt Q9BXS5)	0.126	-0.43	0.791
MON1B (UniProt Q7L1V2)	0.955	0.582	0.685
SOGA1 (UniProt O94964)	0.0497	-0.0282	-0.097
LGALS3 (UniProt P17931)	0.762	0.918	-0.377
POLR3B (UniProt Q9NW08)	0.417	0.0689	0.309
MKL2 (UniProt Q9ULH7)	-0.208	-0.342	0.418
KIF13A (UniProt Q9H1H9)	0.286	-0.0098	0.0799
PHYH (UniProt O14832)	0.0197	-0.12	-0.196
